According to patent US8980926B2, “2-aminoindole compounds and methods for the treatment of malaria” (Genzyme Corporation, priority 2009, dated 2015):

Test system: P. falciparum strain 3D7
Experiment: In vitro potency against P. falciparum strain 3D7 (SYBR green/DAPI)
Assay type: cell-based
Conditions: Plasmodium falciparum, reductions in parasitemia, read-out: IC50 values

Row | SMILES | IC50 [nM]
1 | CC(C)Oc1ccccc1[C@]1(O)C(N)=Nc2ccc(Cl)cc21 [Compound 222] | 1 to 100
2 | COc1cc(C2(O)C(N)=Nc3ccc(Cl)cc32)c2c(cnn2C)c1 (centres unmarked) [Compound 271] | 100 to 500
3 | CCCOc1cnc(OC)cc1C1(O)C(N)=Nc2ccc(Cl)cc21 (centres unmarked) [Compound 220] | 1 to 100
4 | CCOc1cc(C2(O)C(N)=Nc3ccc(Cl)cc32)c(OC)cn1 (centres unmarked) [Compound 228] | 1 to 100
5 | CCN(CC)c1ccccc1C1(O)C(N)=Nc2ccc(Cl)cc21 (centres unmarked) [Compound 234] | 1 to 100
6 | Cc1ccc(CC2(O)C(N)=Nc3ccc(Cl)cc32)o1 (centres unmarked) [Compound 173] | 100 to 500
7 | Cc1ccc2c(c1)C(O)(c1cccc3ccsc13)C(N)=N2 (centres unmarked) [Compound 143] | 1 to 100
8 | COc1ncc(Cl)cc1C1(O)C(N)=Nc2ccc(Cl)cc21 (centres unmarked) [Compound 238] | 1 to 100
9 | NC1=Nc2ccc(Cl)cc2C1(O)c1cc(F)ccc1OC1CCC1 (centres unmarked) [Compound 164] | 1 to 100
10 | NC1=Nc2ccc(Cl)cc2C1(O)c1nc2ccccc2s1 (centres unmarked) [Compound 137] | 100 to 500
11 | C#Cc1ccc2c(c1)C(O)(c1ccc(C3(c4ccccc4)OCCO3)cc1)C(N)=N2 (centres unmarked) [Compound 125] | 100 to 500
12 | NC1=Nc2ccc(Cl)cc2C1(O)c1ccc2ncsc2c1 (centres unmarked) [Compound 148] | 100 to 500
13 | NC1=Nc2ccc(Cl)cc2C1(O)c1cccc2c1OCC2 (centres unmarked) [Compound 67] | 1 to 100
14 | CN(C)c1ccc(C2(O)C(N)=Nc3ccc(Cl)cc32)c2ccccc12 (centres unmarked) [Compound 68] | 1 to 100
15 | COc1ccc2c(c1)C(O)(C1CC1)C(N)=N2 (centres unmarked) [Compound 180] | 100 to 500
16 | COc1ccc2c(c1)C(O)(c1cccc3ccsc13)C(N)=N2 (centres unmarked) [Compound 159] | 1 to 100
17 | NC1=Nc2ccccc2C1(O)c1cc(F)cc2ccccc12 (centres unmarked) [Compound 264] | 100 to 500
18 | COc1ccc2c(c1)C(O)(c1ccccc1OC)C(N)=N2 (centres unmarked) [Compound 132] | 100 to 500
19 | NC1=Nc2ccc(Cl)cc2C1(O)c1cc(SC2CCC2)ccc1F (centres unmarked) [Compound 185] | 1 to 100
20 | CN(C)c1cccc(C2(O)C(N)=Nc3ccc(Cl)cc32)c1 (centres unmarked) [Compound 21] | 100 to 500
21 | NC(=O)c1ccc2c(c1)C(O)(c1ccccc1)C(N)=N2 (centres unmarked) [Compound 100] | 5000 to 15000
22 | COc1ccc(OC2CCC2)c(C2(O)C(N)=Nc3ccc(Cl)cc32)c1 (centres unmarked) [Compound 158] | 1 to 100
23 | NC1=Nc2ccc(Cl)cc2C1(O)c1ccccn1 (centres unmarked) [Compound 49] | 1000 to 5000
24 | CCSc1ccc(F)cc1C1(O)C(N)=Nc2ccc(Cl)cc21 (centres unmarked) [Compound 182] | 1 to 100
25 | CCOc1cc(F)ccc1C1(O)C(N)=Nc2ccc(Cl)cc21 (centres unmarked) [Compound 225] | 1 to 100

Row | SMILES | IC50 [nM]
26 | COc1ccc(C2(O)C(N)=Nc3ccc(Cl)cc32)c(OC)c1 (centres unmarked) [Compound 86] | 1 to 100
27 | CS(=O)(=O)c1ccccc1C1(O)C(N)=Nc2ccc(Cl)cc21 (centres unmarked) [Compound 120] | 500 to 1000
28 | NC1=Nc2ccccc2C1(O)c1ccccc1 (centres unmarked) [Compound 4] | 100 to 500
29 | NC1=Nc2ccc(Cl)cc2C1(O)c1ccccc1Cl (centres unmarked) [Compound 113] | 100 to 500
30 | NC1=Nc2ccc(Cl)cc2C1(O)c1cccc2ccoc12 (centres unmarked) [Compound 150] | 1 to 100
31 | NC1=Nc2c(Cl)cc(Cl)cc2C1(O)c1ccccc1 (centres unmarked) [Compound 55] | 1000 to 5000
32 | NC1=Nc2ccc(Cl)cc2C1(O)c1ccncc1 (centres unmarked) [Compound 79] | 1000 to 5000
33 | NC1=Nc2ccc(Cl)cc2C1(O)Cc1nc2ccccc2s1 (centres unmarked) [Compound 139] | 1 to 100
34 | CCCCC1(O)C(N)=Nc2ccc(Cl)cc21 (centres unmarked) [Compound 26] | 100 to 500
35 | NC1=Nc2ccc(CCCC3CCCCC3)cc2C1(O)c1ccccc1 (centres unmarked) [Compound 93] | 100 to 500
36 | CN1CCN(c2ccccc2C2(O)C(N)=Nc3ccc(Cl)cc32)CC1 (centres unmarked) [Compound 149] | 500 to 1000
37 | NC1=Nc2ccc(Cl)cc2C1(O)c1ccccc1-c1ccccc1Br (centres unmarked) [Compound 115] | 1 to 100
38 | CCOc1ccc(F)c(C2(O)C(N)=Nc3ccc(Cl)cc32)c1 (centres unmarked) [Compound 209] | 1 to 100
39 | NC1=Nc2ccc(Cl)cc2C1(O)c1cccc(F)c1F (centres unmarked) [Compound 95] | 100 to 500
40 | NC1=Nc2ccc(Cl)cc2C1(O)C1CCC1 (centres unmarked) [Compound 197] | 100 to 500
41 | NC1=Nc2ccc(O)cc2C1(O)c1ccccc1 (centres unmarked) [Compound 62] | 5000 to 15000
42 | NC1=Nc2ccc(Cl)cc2C1(O)c1ccc(F)c2ccccc12 (centres unmarked) [Compound 12] | 1 to 100
43 | NC1=Nc2ccc(Cl)cc2C1(O)c1cc(Cl)ccc1OC1CCC1 (centres unmarked) [Compound 157] | 1 to 100
44 | Cc1ccc2c(c1)C(O)(Cc1ccccc1)C(N)=N2 (centres unmarked) [Compound 131] | 1 to 100
45 | COc1cnc(OC)c(C2(O)C(N)=Nc3ccc(C)cc32)c1 (centres unmarked) [Compound 254] | 1 to 100
46 | Cc1ccc2c(c1)C(O)(c1cc(Cl)ccc1OC(C)(C)C)C(N)=N2 (centres unmarked) [Compound 261] | 1 to 100
47 | NC1=Nc2cc(Cl)cc(Cl)c2C1(O)c1ccccc1 (centres unmarked) [Compound 52] | 1000 to 5000
48 | NC1=Nc2ccc(Cl)cc2C1(O)c1ccccc1F (centres unmarked) [Compound 89] | 100 to 500
49 | NC1=Nc2ccc(Cl)cc2C1(O)c1cc(F)ccc1N1CCOCC1 (centres unmarked) [Compound 178] | 1 to 100
50 | NC1=Nc2ccccc2C1(O)c1ccc(C(F)(F)F)cc1 (centres unmarked) [Compound 8] | 100 to 500
